Results reported in patent US20230233569A1 (Revolution Medicines, Inc., priority 2020, published 2023).
pEC50, pIC50: −log10 of the molar value. Read-outs that look alike come from different tables or passages of the source.

How the values were obtained:
KRAS G12D = KRAS G12D (Homo sapiens, UniProt P01116+P62937, G12D); experiment: Disruption of BRAF RBD interaction with Ras (FRET / MOA assay, with Cyclophilin A); assay type: biochemical
In short: (§1)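 First, compounds at a ten-point threefold dilution series (highest final concentration 30 μM) were incubated with nucleotide-loaded K-Ras, Cyclophilin A and BRAF RBD for 3 h at 25 °C. Next, detection antibodies were added for 1.5 h. Finally, IC50 was calculated from TR-FRET ratio decreases against DMSO controls.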

KRAS G13D = KRAS G13D (Homo sapiens, UniProt P01116+P62937, G13D); experiment: as above; assay type: biochemical
Chain of KRAS G13D (P01116 1-169 isoform P01116-2 G13D limits assumed): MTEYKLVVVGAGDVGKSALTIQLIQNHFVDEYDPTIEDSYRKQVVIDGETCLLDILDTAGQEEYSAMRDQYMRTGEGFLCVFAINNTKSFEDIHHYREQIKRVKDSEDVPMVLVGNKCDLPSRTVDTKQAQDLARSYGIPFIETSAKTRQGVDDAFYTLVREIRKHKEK
Chain of KRAS G13D (P62937 whole entry): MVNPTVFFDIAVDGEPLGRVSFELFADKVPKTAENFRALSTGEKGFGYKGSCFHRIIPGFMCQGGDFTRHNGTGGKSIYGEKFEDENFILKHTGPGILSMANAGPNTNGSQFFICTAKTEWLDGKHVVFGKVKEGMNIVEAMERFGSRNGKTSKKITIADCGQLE
In short: as §1

NRAS G12C = NRAS G12C (Homo sapiens, UniProt P01111+P62937, G12C); experiment: as above; assay type: biochemical
Chain of NRAS G12C (P01111 whole entry G12C): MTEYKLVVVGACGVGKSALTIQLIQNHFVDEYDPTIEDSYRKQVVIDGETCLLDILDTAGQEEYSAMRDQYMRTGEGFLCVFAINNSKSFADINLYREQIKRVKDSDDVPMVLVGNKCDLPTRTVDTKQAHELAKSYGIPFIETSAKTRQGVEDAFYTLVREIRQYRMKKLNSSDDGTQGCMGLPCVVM
Chain of NRAS G12C (P62937 whole entry): as the sequence (P62937 whole entry) above

KRAS G12V = KRAS G12V (Homo sapiens, UniProt P01116+P62937, G12V); experiment: as above; assay type: biochemical
Chain of KRAS G12V (P01116 1-169 isoform P01116-2 G12V limits assumed): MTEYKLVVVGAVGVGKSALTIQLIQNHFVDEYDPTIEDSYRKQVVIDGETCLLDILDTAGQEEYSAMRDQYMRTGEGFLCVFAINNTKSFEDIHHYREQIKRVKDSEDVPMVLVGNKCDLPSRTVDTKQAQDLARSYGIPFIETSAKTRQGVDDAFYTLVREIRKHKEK
Chain of KRAS G12V (P62937 whole entry): as the sequence (P62937 whole entry) above
In short: as §1

KRAS G12S = KRAS G12S (Homo sapiens, UniProt P01116+P62937, G12S); experiment: as above; assay type: biochemical
Chain of KRAS G12S (P01116 1-169 isoform P01116-2 G12S limits assumed): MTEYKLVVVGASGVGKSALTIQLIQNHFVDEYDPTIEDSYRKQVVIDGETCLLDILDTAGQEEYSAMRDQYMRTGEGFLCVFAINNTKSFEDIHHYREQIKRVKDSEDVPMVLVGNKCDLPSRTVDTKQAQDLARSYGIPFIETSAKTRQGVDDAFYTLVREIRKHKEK
Chain of KRAS G12S (P62937 whole entry): as the sequence (P62937 whole entry) above
In short: as §1

KRAS WT = KRAS WT (Homo sapiens, UniProt P01116+P62937); experiment: as above; assay type: biochemical
Chain of KRAS WT (P01116 1-169 isoform P01116-2 limits assumed): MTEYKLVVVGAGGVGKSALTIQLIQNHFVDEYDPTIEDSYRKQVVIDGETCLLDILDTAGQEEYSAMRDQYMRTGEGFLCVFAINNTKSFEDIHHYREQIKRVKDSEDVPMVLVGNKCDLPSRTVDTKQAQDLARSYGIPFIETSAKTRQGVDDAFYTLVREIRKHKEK
Chain of KRAS WT (P62937 whole entry): as the sequence (P62937 whole entry) above
In short: as §1

KRAS G12C = KRAS G12C (Homo sapiens, UniProt P01116+P62937, G12C); experiment: as above; assay type: biochemical
Chain of KRAS G12C (P01116 1-169 isoform P01116-2 G12C): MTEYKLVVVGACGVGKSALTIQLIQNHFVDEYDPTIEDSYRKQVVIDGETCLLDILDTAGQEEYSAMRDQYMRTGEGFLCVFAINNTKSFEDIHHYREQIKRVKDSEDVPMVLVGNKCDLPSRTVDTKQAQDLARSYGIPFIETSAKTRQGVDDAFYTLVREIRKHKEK
Chain of KRAS G12C (P62937 whole entry): as the sequence (P62937 whole entry) above
In short: as §1

KRAS G13C = KRAS G13C (Homo sapiens, UniProt P01116+P62937, G13C); experiment: as above; assay type: biochemical
Chain of KRAS G13C (P01116 1-169 isoform P01116-2 G13C): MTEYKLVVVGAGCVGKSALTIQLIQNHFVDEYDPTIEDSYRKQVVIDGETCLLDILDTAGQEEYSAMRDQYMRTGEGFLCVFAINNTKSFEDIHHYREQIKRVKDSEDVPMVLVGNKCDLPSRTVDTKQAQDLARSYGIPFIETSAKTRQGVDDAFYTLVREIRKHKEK
Chain of KRAS G13C (P62937 whole entry): as the sequence (P62937 whole entry) above
In short: as §1

NCI-H358 (K-Ras G12C) = experiment: CellTiter-Glo cell viability assay, 5-day treatment; assay type: cell-based; conditions: Homo sapiens, NCI-H358, H358, K-Ras G12C; read-out: Additional H358 Cell Viability assay data (K-Ras G12C, IC50)
In short: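 Compounds were dispensed directly onto seeded cells and incubated for 5 days, then plates were equilibrated to room temperature for about 30 minutes before luminescence reading. Signals were expressed as percent of the mean DMSO control and fitted with a four-parameter logistic curve.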

[1] = tested on: K-Ras G12C (NCI-H358 cells); experiment: Potency assay: pERK (AlphaLISA SureFire or In-Cell Western); assay type: cell-based; conditions: Homo sapiens
Method: (§2) The purpose of this assay is to measure the ability of test compounds to inhibit K-Ras in cells. […] This procedure measures a decrease in cellular pERK in response to test compounds.
(§3) NCI-H358 cells were grown and maintained using media and procedures recommended by the ATCC. On the day prior to compound addition, cells were plated in 384-well cell culture plates (40 μl/well) and grown overnight in a 37° C., 5% CO2 incubator. Test compounds were prepared in 10, 3-fold dilutions in DMSO, with a high concentration of 10 mM. On the day of assay, 40 nL of test compound was added to each well of cell culture plate using an Echo550 liquid handler (LabCyte®). Concentrations of test compound were tested in duplicate. After compound addition, cells were incubated 4 hours at 37° C., 5% CO2. Following incubation, culture medium was removed and cells were washed once with phosphate buffered saline.
(§4) In some experiments, cellular pERK level was determined using the AlphaLISA SureFire Ultra p-ERK1/2 Assay Kit (PerkinElmer). Cells were lysed in 25 μL lysis buffer, with shaking at 600 RPM at room temperature. […] After a 2-hour incubation in the dark, 5 μL donor mix was added, plate was sealed, and incubated 2 hours at room temperature. Signal was read on an Envision plate reader (PerkinElmer) using standard AlphaLISA settings. Analysis of raw data was carried out in Excel (Microsoft) and Prism (GraphPad). Signal was plotted vs. the decadal logarithm of compound concentration, and IC50 was determined by fitting a 4-parameter sigmoidal concentration response model.
In other experiments, cellular pERK was determined by In-Cell Western. […] Fixed cells were washed 4 times for 5 minutes with TBS containing 0.1% Triton X-100 (TBST) and then blocked with 100 μL Odyssey blocking buffer (LI-COR) for 60 minutes at room temperature. […] Cells were washed 4 times for 5 minutes with TBST. Secondary antibody (IR-800CW rabbit, LI-COR, diluted 1:800) and DNA stain DRAQ5 (LI-COR, diluted 1:2000) were added and incubated 1-2 hours at room temperature. Cells were washed 4 times for 5 minutes with TBST. Plates were scanned on a LI-COR Odyssey CLx Imager. Analysis of raw data was carried out in Excel (Microsoft) and Prism (GraphPad). Signal was plotted vs. the decadal logarithm of compound concentration, and IC50 was determined by fitting a 4-parameter sigmoidal concentration response model.
as §2
as §3, with “mM. On day of” for “mM. On the day of”, “assay, 40 nl of test” for “assay, 40 nL of test”
as §4, with “μl” for “μL”, “sealed” for “sealed,”

NRAS Q61K = NRAS Q61K (Homo sapiens, UniProt P01111+P62937, Q61K); experiment: Disruption of BRAF RBD interaction with Ras (FRET / MOA assay, with Cyclophilin A); assay type: biochemical; conditions: NRAS Q61K; read-out: NRAS Q61K FRET data IC50
Chain of NRAS Q61K (P01111 whole entry Q61K): as the sequence (P01111 whole entry G12C) above, with C12G, Q61K counted along it
Chain of NRAS Q61K (P62937 whole entry): as the sequence (P62937 whole entry) above
In short: (§5)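 TR-FRET in 25 mM HEPES pH 7.3, 100 mM NaCl, 5 mM MgCl2, 0.1% BSA: 25 μM Cyclophilin A, 12.5 nM His6-Ras-GMPPNP, 50 nM GST-BRAF RBD with compound (10-point 3-fold series from 30 μM), 3 h at 25° C. Anti-His Eu/anti-GST APC added, 1.5 h more; IC50 from decreased FRET ratio versus DMSO.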

NRAS Q61R = NRAS Q61R (Homo sapiens, UniProt P01111+P62937, Q61R); experiment: as above; assay type: biochemical; conditions: NRAS Q61R; read-out: NRAS Q61R FRET data IC50
Chain of NRAS Q61R (P01111 whole entry Q61R): as the sequence (P01111 whole entry G12C) above, with C12G, Q61R counted along it
Chain of NRAS Q61R (P62937 whole entry): as the sequence (P62937 whole entry) above
In short: as §5

[2] = read-out: KRAS G12D FRET data, IC50
[3] = KRAS G13D, read-out: KRAS G13D FRET data IC50
[4] = NRAS G12C, read-out: NRAS G12C FRET data IC50
[5] = KRAS G12V, read-out: KRAS G12V FRET data IC50
[6] = read-out: KRAS G12S FRET data, IC50
[7] = KRAS WT, read-out: KRAS WT FRET data IC50
[8] = KRAS G12C, read-out: KRAS G12C FRET data IC50
[9] = KRAS G13C, read-out: KRAS G13C FRET data IC50
[10] = NCI-H358, H358 KRAS G12C, read-out: pERK EC50

Chain of KRAS G12D (P01116 1-169 isoform P01116-2 G12D limits assumed): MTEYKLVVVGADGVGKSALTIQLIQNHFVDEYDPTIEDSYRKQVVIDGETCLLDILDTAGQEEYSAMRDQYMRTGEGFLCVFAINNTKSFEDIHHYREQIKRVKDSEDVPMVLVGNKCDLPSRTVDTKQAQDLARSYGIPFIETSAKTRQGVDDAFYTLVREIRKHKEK
Chain of KRAS G12D (P62937 whole entry): as the sequence (P62937 whole entry) above

Row | pIC50 (KRAS G12D; [2]) | pIC50 (KRAS G13D; [3]) | pIC50 (NRAS G12C; [4]) | pIC50 (KRAS G12V; [5]) | pIC50 (KRAS G12S; [6]) | pIC50 (KRAS WT; [7]) | pIC50 (KRAS G12C; [8]) | pIC50 (KRAS G13C; [9]) | pIC50 (NCI-H358 (K-Ras G12C)) | pEC50 [1, 10] | pIC50 (NRAS Q61K) | pIC50 (NRAS Q61R) | Structure (SMILES) | also measured
1 | 5.00 to 6.00 | 5.00 to 6.00 | 6.00 to 7.00 | 5.00 to 6.00 | 5.00 to 6.00 | 5.00 to 6.00 | 6.00 to 7.00 | 5.00 to 6.00 | 7.00 to 8.00 | > 5.30 |  |  | CCn1c(-c2cccnc2[C@H](C)OC)c2c3cc(ccc31)-c1csc(n1)C[C@H](NC(=O)[C@H](C(C)C)N(C)C(=O)[C@H]1CCN(C(=O)/C=C/CN(C)C)C1)C(=O)N1CCC[C@H](N1)C(=O)OCC(C)(C)C2 [Example A282] | 
2 | < 5.00 | < 5.00 | 6.00 to 7.00 | 5.00 to 6.00 | 5.00 to 6.00 | 5.00 to 6.00 | 6.00 to 7.00 | 5.00 to 6.00 | 7.00 to 8.00 | > 5.30 |  |  | CC#C[S+]([O-])N1CC[C@H](C(=O)N(C)[C@H](C(=O)N[C@H]2Cc3cccc(c3)-c3ccc4c(c3)c(c(-c3cccnc3[C@H](C)OC)n4CC)CC(C)(C)COC(=O)[C@@H]3CCCN(N3)C2=O)C2CCCC2)C1 (stereo partly drawn) [Example A310] | 
3 | 5.00 to 6.00 | 5.00 to 6.00 | 7.00 to 8.00 | 5.00 to 6.00 | 5.00 to 6.00 | 5.00 to 6.00 | 7.00 to 8.00 | 6.00 to 7.00 | > 8.00 | > 5.30 |  |  | CCn1c(-c2cccnc2[C@H](C)OC)c2c3cc(ccc31)-c1cccc(c1)C[C@H](NC(=O)[C@H](C(C)C)N(C)C(=O)[C@@H]1CCN(C(=O)C#CC(C)(C)N3CCC3)C1)C(=O)N1CCC[C@H](N1)C(=O)OCC(C)(C)C2 [Example A476] | 
4 | < 5.00 | < 5.00 | 7.00 to 8.00 | 5.00 to 6.00 | 5.00 to 6.00 | 5.00 to 6.00 | 7.00 to 8.00 | 5.00 to 6.00 | > 8.00 | > 5.30 |  |  | CCn1c(-c2cccnc2[C@H](C)OC)c2c3cc(ccc31)-c1cccc(c1)C[C@H](NC(=O)[C@H](C(C)C)N(C)C(=O)[C@H]1CCN(C(=O)C#CC3CC(F)(F)CN3C)C1)C(=O)N1CCC[C@H](N1)C(=O)OCC(C)(C)C2 (stereo partly drawn) [Example A526] | 
5 |  |  | 7.00 to 8.00 |  |  |  |  |  | > 8.00 | > 5.30 | 7.00 to 8.00 | 7.00 to 8.00 | C=CC(=O)N1CCO[C@@H]2CCN(C(=O)N(C)[C@H](C(=O)N[C@H]3Cc4nc(cs4)-c4ccc5c(c4)c(c(-c4cccnc4[C@H](C)OC)n5CC)CC(C)(C)COC(=O)C4CCCN(N4)C3=O)C(C)C)CC21 (stereo partly drawn) [Example A596] | 
6 |  |  | 7.00 to 8.00 |  |  |  |  |  | > 8.00 | > 5.30 | 6.00 to 7.00 | 6.00 to 7.00 | C=CC(=O)N1CCO[C@H]2CN(C(=O)N(C)[C@H](C(=O)N[C@H]3Cc4cccc(n4)-c4ccc5c(c4)c(c(-c4cccnc4[C@H](C)OC)n5CC)CC(C)(C)COC(=O)C4CCCN(N4)C3=O)C(C)C)C[C@H]21 (stereo partly drawn) [Example A597] | 
7 |  |  | 7.00 to 8.00 |  |  |  |  |  | > 8.00 | > 5.30 | < 5.00 | < 5.00 | CCn1c(-c2cccnc2[C@H](C)OC)c2c3cc(ccc31)-c1cccc(c1)C[C@H](NC(=O)[C@@H](COC1CN(C(=O)C#CC(C)(C)N(C)C(C)C)C1)C(C)C)C(=O)N1CCCC(N1)C(=O)OCC(C)(C)C2 (stereo partly drawn) [Example A599] | 

Row | Structure (SMILES) | pIC50 (KRAS G12D; [2]) | pIC50 (KRAS G13D; [3]) | pIC50 (NRAS G12C; [4]) | pIC50 (KRAS G12V; [5]) | pIC50 (KRAS G12S; [6]) | pIC50 (KRAS WT; [7]) | pIC50 (KRAS G12C; [8]) | pIC50 (KRAS G13C; [9]) | pIC50 (NCI-H358 (K-Ras G12C)) | pEC50 [1, 10] | pIC50 (NRAS Q61K) | pIC50 (NRAS Q61R) | also measured
8 | C=CC(=O)N1CC[C@H](C(=O)N(C)[C@H](C(=O)N[C@H]2Cc3cccc(c3)-c3ccc4c(c3)c(c(-c3cccnc3[C@H](C)OC)n4CC)CC(C)(C)COC(=O)[C@@H]3CCCN(O3)C2=O)C(C)C)C1 [Example A284] |  |  |  |  |  |  |  |  | 6.00 to 7.00 |  |  |  | pIC50 (KRAS G12D; KRAS G12D FRET data, IC50): < 5.00; pIC50 (KRAS G13D; KRAS G13D FRET data IC50, KRAS G13D): < 5.00; pIC50 (NRAS G12C; NRAS G12C FRET data IC50, NRAS G12C): 5.00 to 6.00; pIC50 (KRAS G12V; KRAS G12V FRET data IC50, KRAS G12V): < 5.00; pIC50 (KRAS G12S; KRAS G12S FRET data, IC50): < 5.00; pIC50 (KRAS WT; KRAS WT FRET data IC50, KRAS WT): < 5.00; pIC50 (KRAS G12C; KRAS G12C FRET data IC50, KRAS G12C): 6.00 to 7.00; pIC50 (KRAS G13C; KRAS G13C FRET data IC50, KRAS G13C): 5.00 to 6.00; pEC50 ([1]; NCI-H358, read-out: pERK EC50): > 5.30
9 | C=CC(=O)N(C)CCN(C)C(=O)N(C)[C@H](C(=O)N[C@H]1Cc2nc(cs2)-c2ccc3c(c2)c(c(-c2cccnc2[C@H](C)OCC)n3CC)CC(C)(C)COC(=O)[C@@H]2CCCN(N2)C1=O)C(C)C [Example A437] | 5.00 to 6.00 | 5.00 to 6.00 | 7.00 to 8.00 | 6.00 to 7.00 | 6.00 to 7.00 | 6.00 to 7.00 | 7.00 to 8.00 | 6.00 to 7.00 | 7.00 to 8.00 | > 5.30 |  |  | 
